From PMC12030627, “Radioiodinated Bicyclic RGD Peptide Derivatives for Enhanced Tumor Accumulation” (Pharmaceuticals, 2025)
Where two headings read alike, the source gives them in different places. Starred links: 1 amine or outer side, 2 acyl side, 3 side chain; linkers in the order of their positions; H or OH if unused. Positions of bridges follow the written chain, without caps; N, C: chain ends. Non-standard residues stand in square brackets, D forms with d. Residues, ends and D or L forms follow the SMILES beside them. *: point of attachment. TBMB = c1c(C[*:1])cc(C[*:3])cc1C[*:2]; Palmitoyl = CCCCCCCCCCCCCCCC(=O)*; Benzoyl(3-I) = O=C(c1cccc(I)c1)*; 4Abz = Nc1ccc(C(=O)O)cc1

Test: Biodistribution in U-87 MG tumor-bearing mice
Assay type: in vivo, BALB/c nu-nu mice
Settings: male, BALB/c nu-nu, mouse, iv, 37 kBq, total radioactivity; for tissue uptake at 5 min: 5 min after i.v. administration; for tissue uptake at 5 min / tissue uptake at 0.5 h / tissue uptake at 1 h / tissue uptake at 2 h / tissue uptake at 6 h / tissue uptake at 12 h / tissue uptake at 24 h: U-87 MG-bearing mice, mean ± SD, n = 3; for tissue uptake at 0.5 h: 30 min after i.v. administration; for tissue uptake at 1 h: 1 h after i.v. administration; for tissue uptake at 2 h: 2 h after i.v. administration; for tissue uptake at 6 h: 6 h after i.v. administration; for tissue uptake at 12 h: 12 h after i.v. administration; for tissue uptake at 24 h: 24 h after i.v. administration
Protocol: Animal experiments were performed in compliance with institutional animal care regulations, with the study protocol approved by the Experimental Animal Committee of Osaka Medical and Pharmaceutical University (Approval Numbers: 21–76, 22–76, and 23–76). Four-week-old male BALB/c nu-nu mice (Japan SLC, Shizuoka, Japan) were housed under a 12 h light/12 h dark cycle with free access to food and water. Tumor-bearing mice were established by suspending U-87 MG cells (2 × 10^6 cells/mouse) in PBS(–) and subcutaneously injecting 100 μL of the suspension into the right hind leg. For co-implantation models, A549 cells (2 × 10^6 cells/mouse) were suspended in PBS(–) and inoculated (100 μL) into the left hind leg of the same mice already inoculated with U-87 MG cells. Mice with tumor size approximately 10 mm in diameter, 4–5 weeks after inoculation, were used for biodistribution studies. Animals in which either tumor was not viable were excluded from the experiment.
U-87 MG-bearing mice (n = 42, 8–9 weeks old; 22–27 g) were randomly assigned into groups and administered [^125I]bcRGDpal or [^125I]bcRGDiba via intravenous injection (37 kBq in 100 μL of PBS containing 0.1% Tween 80 (PBS-T80)). At 5 min, 30 min, 1 h, 2 h, 6 h, 12 h, or 24 h post-injection, the mice were euthanized (n = 3 per time point). The heart, kidneys, liver, brain, pancreas, spleen, lung, small intestine, large intestine, muscle, skin, stomach, bone, and tumors were excised. Each organ’s weight and radioactivity were measured by a NaI well-type scintillation counter, and the % ID/g was calculated. To investigate the correlation between integrin expression and radioactivity accumulation, biodistribution at 2 h after administration of [^125I]bcRGDpal or [^125I]bcRGDiba was assessed in A549 and U-87 MG co-implantation mice (n = 5) using the same procedure. Additionally, co-implantation mice were injected with [^125I]bcRGDdimer (37 kBq/100 μL PBS-T80) and euthanized at 30 min, 2 h, and 4 h post-injection (n = 4 per time point), and % ID/g values were calculated as described above. The minimum sample size needed for the biodistribution study in U-87 MG-bearing mice was calculated using G Power software version 3.1.9.7. The calculation was based on a two-tailed test, with an effect size of 3.9, a significance level (α) of 0.05, and a statistical power (1 − β) of 0.8. […] The minimum required sample size for the biodistribution study in A549 and U-87 MG co-implantation mice was also calculated to be four animals per group (effect size = 2.5, α = 0.05, 1 − β = 0.8). To guarantee objective results, the experiment was carried out in a blinded manner. Specifically, drug administration and radioactivity measurements were conducted by different investigators to eliminate potential bias.

[1] = U-87 MG tumor, read-out: Radioactivity in U-87 MG tumor
[2] = blood, read-out: Radioactivity in blood
[3] = bone, read-out: Radioactivity in bone
[4] = brain, read-out: Radioactivity in brain
[5] = heart, read-out: Radioactivity in heart
[6] = kidneys, read-out: Radioactivity in kidneys
[7] = large intestine, read-out: Radioactivity in large intestine
[8] = liver, read-out: Radioactivity in liver

Q: For `CCCCCCCCCCCCCCCC(=O)N[C@@H](CCCCNC(=O)c1cccc(I)c1)C(=O)N1CCC[C@H]1C(=O)N1CCC[C@H]1C(=O)N1CCC[C@H]1C(=O)N[C@@H](CO)C(=O)NCC(=O)Nc1ccc(C(=O)N[C@@H](CO)C(=O)NCC(=O)N[C@H]2CSCc3cc4cc(c3)CSC[C@@H](NC(=O)[C@H](CCC(N)=O)NC(=O)[C@@H]3CCCN3C(=O)[C@H](Cc3c[nH]cn3)NC2=O)C(=O)N[C@@H](CCCNC(=N)N)C(=O)NCC(=O)N[C@@H](CC(=O)O)C(=O)N[C@@H](C(N)=O)CSC4)cc1` [[^125I]bcRGDpal] (Palmitoyl-K(Benzoyl(3-I))PPPSG[4Abz]SGCHPQ[dC]RGD[dC]-NH2; linker 10-14-18 via TBMB), which tissue uptake at 5 min [1] is on record?
A: 1.4 ± 0.2 %ID/g

Q: What about the tissue uptake at 0.5 h [1] of the same compound?
A: 3.4 ± 0.5 %ID/g

Q: And the tissue uptake at 1 h [1]?
A: 4 ± 0.5 %ID/g

Q: And the tissue uptake at 2 h [1]?
A: 3.9 ± 0.2 %ID/g

Q: What about the tissue uptake at 6 h [1] of the same compound?
A: 2.1 ± 0.4 %ID/g

Q: And the tissue uptake at 12 h [1]?
A: 0.9 ± 0.1 %ID/g

Q: And the tissue uptake at 24 h [1]?
A: 0.3 ± 0.1 %ID/g

Q: And the tissue to tissue ratio (U-87 MG tumor/blood, all time points (5 min to 24 h))?
A: < 1

Q: What about the tissue uptake at 5 min [2] of the same compound?
A: 15.6 ± 1 %ID/g

Q: And the tissue uptake at 0.5 h [2]?
A: 12.2 ± 0.8 %ID/g

Q: What about the tissue uptake at 1 h [2] of the same compound?
A: 9.9 ± 0.5 %ID/g

Q: What about the tissue uptake at 2 h [2] of the same compound?
A: 7.8 ± 0.4 %ID/g

Q: What about the tissue uptake at 6 h [2] of the same compound?
A: 4.5 ± 0.4 %ID/g

Q: What about the tissue uptake at 12 h [2] of the same compound?
A: 2 ± 0.3 %ID/g

Q: And the tissue uptake at 24 h [2]?
A: 0.5 %ID/g

Q: What about the tissue uptake at 5 min [3] of the same compound?
A: 1.4 ± 0.1 %ID/g

Q: And the tissue uptake at 0.5 h [3]?
A: 1.7 ± 0.6 %ID/g

Q: And the tissue uptake at 1 h [3]?
A: 1.1 ± 0.3 %ID/g

Q: What about the tissue uptake at 2 h [3] of the same compound?
A: 1.3 ± 0.4 %ID/g

Q: What about the tissue uptake at 6 h [3] of the same compound?
A: 0.7 ± 0.1 %ID/g

Q: What about the tissue uptake at 12 h [3] of the same compound?
A: 0.4 %ID/g

Q: What about the tissue uptake at 24 h [3] of the same compound?
A: 0.1 ± 0.1 %ID/g

Q: And the tissue uptake at 5 min [4]?
A: 0.5 ± 0.1 %ID/g

Q: And the tissue uptake at 0.5 h [4]?
A: 0.3 ± 0.1 %ID/g

Q: And the tissue uptake at 1 h [4]?
A: 0.3 %ID/g

Q: What about the tissue uptake at 2 h [4] of the same compound?
A: 0.2 %ID/g

Q: What about the tissue uptake at 6 h [4] of the same compound?
A: 0.1 %ID/g

Q: What about the tissue uptake at 12 h [4] of the same compound?
A: 0.1 %ID/g

Q: And the tissue uptake at 5 min [5]?
A: 6.6 ± 0.1 %ID/g

Q: And the tissue uptake at 0.5 h [5]?
A: 4.7 ± 0.4 %ID/g

Q: And the tissue uptake at 1 h [5]?
A: 4.3 ± 0.3 %ID/g

Q: And the tissue uptake at 2 h [5]?
A: 3.1 ± 0.2 %ID/g

Q: What about the tissue uptake at 6 h [5] of the same compound?
A: 1.7 %ID/g

Q: And the tissue uptake at 12 h [5]?
A: 0.8 ± 0.1 %ID/g

Q: And the tissue uptake at 24 h [5]?
A: 0.2 %ID/g

Q: And the tissue uptake at 5 min [6]?
A: 9 ± 0.2 %ID/g

Q: And the tissue uptake at 0.5 h [6]?
A: 8.3 ± 0.9 %ID/g

Q: What about the tissue uptake at 1 h [6] of the same compound?
A: 7.7 ± 0.2 %ID/g

Q: And the tissue uptake at 2 h [6]?
A: 6.7 ± 0.6 %ID/g

Q: What about the tissue uptake at 6 h [6] of the same compound?
A: 4.2 ± 0.6 %ID/g

Q: What about the tissue uptake at 12 h [6] of the same compound?
A: 1.7 ± 0.2 %ID/g

Q: What about the tissue uptake at 24 h [6] of the same compound?
A: 0.4 %ID/g

Q: What about the tissue uptake at 5 min [7] of the same compound?
A: 0.9 ± 0.1 %ID/g

Q: And the tissue uptake at 0.5 h [7]?
A: 1.4 ± 0.2 %ID/g

Q: And the tissue uptake at 1 h [7]?
A: 1.4 ± 0.1 %ID/g

Q: What about the tissue uptake at 2 h [7] of the same compound?
A: 6.9 ± 1.1 %ID/g

Q: And the tissue uptake at 6 h [7]?
A: 11.8 ± 2 %ID/g

Q: What about the tissue uptake at 12 h [7] of the same compound?
A: 7.5 ± 0.8 %ID/g

Q: And the tissue uptake at 24 h [7]?
A: 2.3 ± 1.1 %ID/g

Q: And the tissue uptake at 5 min [8]?
A: 17.6 ± 0.9 %ID/g

Q: And the tissue uptake at 0.5 h [8]?
A: 19 ± 2.1 %ID/g
